Measurements from US12686673B2 (Blueprint Medicines Corporation, priority 2020, dated 2026).

Experiments:
Type in all cases: cell-based
[1] = molecular target: EGFR(D770_N771insSVD) expressing Ba/F3 stable cell line (Homo sapiens, UniProt P00533, DUP768-770, cells depend on it); test: Cellular proliferation (Alamar Blue) assay, EGFR D770_N771insSVD Ba/F3; settings: 72 hr, read-out: D770 IC50
Summary of the method: (§1)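 Alamar Blue read-out, 3 h at 37 °C, after 72 hr compound exposure of Ba/F3 transfectants (15,000 cells/well, RPMI + 10% FBS, plated 16-18 h earlier).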

[2] = test system: A431 cells; test: Cellular proliferation (Alamar Blue) assay, A431; settings: Homo sapiens, A-431; A431 cells, Alamar Blue, 72 hr; read-out: A431 IC50
[3] = molecular target: EGFR (A767_dupASV) expressing Ba/F3 stable cell line (Homo sapiens, UniProt P00533, DUP767-769, cells depend on it); test: Cellular proliferation (Alamar Blue) assay, EGFR A767_dupASV Ba/F3; settings: 72 hr, read-out: A767 IC50
EGFR (A767_dupASV) expressing Ba/F3 stable cell line, sequence (P00533 with tags, fused parts or gaps DUP767-769): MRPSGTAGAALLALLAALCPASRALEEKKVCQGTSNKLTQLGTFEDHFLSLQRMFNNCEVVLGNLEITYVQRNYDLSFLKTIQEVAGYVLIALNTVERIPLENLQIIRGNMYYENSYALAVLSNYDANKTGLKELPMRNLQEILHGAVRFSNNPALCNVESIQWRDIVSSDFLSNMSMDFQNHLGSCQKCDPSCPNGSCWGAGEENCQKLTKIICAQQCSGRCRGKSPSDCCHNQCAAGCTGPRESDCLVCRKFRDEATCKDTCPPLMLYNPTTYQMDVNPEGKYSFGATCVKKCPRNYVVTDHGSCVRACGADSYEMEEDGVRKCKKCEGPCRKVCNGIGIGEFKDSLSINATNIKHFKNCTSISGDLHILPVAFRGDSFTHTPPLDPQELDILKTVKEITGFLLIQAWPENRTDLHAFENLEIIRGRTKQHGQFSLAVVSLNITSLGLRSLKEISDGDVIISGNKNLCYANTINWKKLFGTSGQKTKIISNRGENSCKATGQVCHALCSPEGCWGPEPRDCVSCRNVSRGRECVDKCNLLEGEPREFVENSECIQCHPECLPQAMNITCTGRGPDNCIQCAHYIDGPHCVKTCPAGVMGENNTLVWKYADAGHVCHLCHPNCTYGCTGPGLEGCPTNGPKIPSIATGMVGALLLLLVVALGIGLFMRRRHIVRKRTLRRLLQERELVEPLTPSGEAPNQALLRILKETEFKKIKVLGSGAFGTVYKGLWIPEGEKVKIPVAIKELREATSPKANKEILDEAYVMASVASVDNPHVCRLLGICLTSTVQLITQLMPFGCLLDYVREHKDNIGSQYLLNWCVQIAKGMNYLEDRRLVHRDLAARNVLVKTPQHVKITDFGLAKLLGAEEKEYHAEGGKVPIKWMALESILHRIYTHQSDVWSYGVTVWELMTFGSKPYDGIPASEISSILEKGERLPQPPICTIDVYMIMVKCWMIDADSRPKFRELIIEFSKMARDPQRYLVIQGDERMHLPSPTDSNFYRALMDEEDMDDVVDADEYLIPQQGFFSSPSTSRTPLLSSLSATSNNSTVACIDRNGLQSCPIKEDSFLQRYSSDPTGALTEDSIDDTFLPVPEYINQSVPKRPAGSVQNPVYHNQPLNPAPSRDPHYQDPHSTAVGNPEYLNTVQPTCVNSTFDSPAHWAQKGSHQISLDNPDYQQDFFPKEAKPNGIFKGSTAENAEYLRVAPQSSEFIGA
Summary of the method: as §1

[4] = molecular target: HER2 (A775_G776insYVMA) expressing Ba/F3 stable cell line (Homo sapiens, UniProt P04626, DUP772-775, cells depend on it); test: Cellular proliferation (Alamar Blue) assay, HER2 A775_G776insYVMA Ba/F3; settings: 72 hr, read-out: YVMA IC50
HER2 (A775_G776insYVMA) expressing Ba/F3 stable cell line, sequence (P04626 with tags, fused parts or gaps DUP772-775): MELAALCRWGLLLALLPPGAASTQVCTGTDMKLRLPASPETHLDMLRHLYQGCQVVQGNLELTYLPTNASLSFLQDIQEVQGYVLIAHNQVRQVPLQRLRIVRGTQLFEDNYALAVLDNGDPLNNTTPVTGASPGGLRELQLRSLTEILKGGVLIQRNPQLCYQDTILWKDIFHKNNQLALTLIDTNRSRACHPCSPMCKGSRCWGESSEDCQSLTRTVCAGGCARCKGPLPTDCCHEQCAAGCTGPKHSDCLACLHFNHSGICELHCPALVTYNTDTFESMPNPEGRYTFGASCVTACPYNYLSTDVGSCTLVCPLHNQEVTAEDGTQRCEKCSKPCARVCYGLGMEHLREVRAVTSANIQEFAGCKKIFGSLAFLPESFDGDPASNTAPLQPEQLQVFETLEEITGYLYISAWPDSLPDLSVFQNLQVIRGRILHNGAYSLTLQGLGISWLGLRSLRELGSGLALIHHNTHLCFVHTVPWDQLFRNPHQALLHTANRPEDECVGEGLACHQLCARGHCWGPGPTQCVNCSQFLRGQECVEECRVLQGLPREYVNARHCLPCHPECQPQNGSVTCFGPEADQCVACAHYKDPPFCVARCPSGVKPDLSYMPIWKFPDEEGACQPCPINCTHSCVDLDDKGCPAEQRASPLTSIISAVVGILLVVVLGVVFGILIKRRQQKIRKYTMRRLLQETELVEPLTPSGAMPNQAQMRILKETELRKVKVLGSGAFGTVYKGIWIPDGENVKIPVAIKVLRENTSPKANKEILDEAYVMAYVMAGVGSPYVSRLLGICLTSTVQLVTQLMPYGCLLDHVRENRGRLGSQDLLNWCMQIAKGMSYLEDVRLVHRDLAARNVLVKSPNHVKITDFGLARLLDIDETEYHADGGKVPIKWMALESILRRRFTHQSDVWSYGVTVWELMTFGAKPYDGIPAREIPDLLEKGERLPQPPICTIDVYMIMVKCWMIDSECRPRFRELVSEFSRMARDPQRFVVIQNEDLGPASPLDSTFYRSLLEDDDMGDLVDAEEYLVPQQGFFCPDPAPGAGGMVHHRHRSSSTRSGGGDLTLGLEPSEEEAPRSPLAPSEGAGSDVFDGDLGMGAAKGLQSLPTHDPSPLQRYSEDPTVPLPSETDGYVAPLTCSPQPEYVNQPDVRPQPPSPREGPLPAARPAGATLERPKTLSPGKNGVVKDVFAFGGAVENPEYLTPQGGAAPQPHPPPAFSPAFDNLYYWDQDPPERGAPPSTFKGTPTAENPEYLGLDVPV
Description: • 1. EGFR(D770_N771insSVD) expressing Ba/F3 stable cell line • 2. EGFR (A767_dupASV) expressing Ba/F3 stable cell line • 3. A431 cells • 4. EGFR (H773insNPH) expressing Ba/F3 stable cell line • 5. HER2 (A775_G776insYVMA) expressing Ba/F3 stable cell line Assay Procedure: • 1. Seed cells at 5000 for A431 and 15,000 cells for Ba/F3 in 100 μL/well in complete media (for A431: DMEM with […] and for Ba/F3 cells: RPMI with 10% FBS) in 96-well tissue culture plate. Leave outer wells without cells for background measurements. Incubate at 37 degree Celsius in […] humidified incubator for 16-18 hours. • 2. Add 0.025 ml of 5× concentration compound dilution or DMSO control. Final compound concentration range is 10-0.0005 μM prepared in 3-fold serial dilutions. Incubate for 72 hr at 37 degree Celsius in […] humidified incubator. • 3. Add 0.0125 ml Alamar Blue™ reagent to each well with multi-channel pipette and tap gently on each side of the plate to mix. Incubate for 3 hours at 37 degree Celsius in 5% CO2 humidified incubator. • 4. […] Data analysis was performed using XLfit 5.5.0.5.

EGFR(D770_N771insSVD) expressing Ba/F3 stable cell line, sequence (P00533 with tags, fused parts or gaps DUP768-770): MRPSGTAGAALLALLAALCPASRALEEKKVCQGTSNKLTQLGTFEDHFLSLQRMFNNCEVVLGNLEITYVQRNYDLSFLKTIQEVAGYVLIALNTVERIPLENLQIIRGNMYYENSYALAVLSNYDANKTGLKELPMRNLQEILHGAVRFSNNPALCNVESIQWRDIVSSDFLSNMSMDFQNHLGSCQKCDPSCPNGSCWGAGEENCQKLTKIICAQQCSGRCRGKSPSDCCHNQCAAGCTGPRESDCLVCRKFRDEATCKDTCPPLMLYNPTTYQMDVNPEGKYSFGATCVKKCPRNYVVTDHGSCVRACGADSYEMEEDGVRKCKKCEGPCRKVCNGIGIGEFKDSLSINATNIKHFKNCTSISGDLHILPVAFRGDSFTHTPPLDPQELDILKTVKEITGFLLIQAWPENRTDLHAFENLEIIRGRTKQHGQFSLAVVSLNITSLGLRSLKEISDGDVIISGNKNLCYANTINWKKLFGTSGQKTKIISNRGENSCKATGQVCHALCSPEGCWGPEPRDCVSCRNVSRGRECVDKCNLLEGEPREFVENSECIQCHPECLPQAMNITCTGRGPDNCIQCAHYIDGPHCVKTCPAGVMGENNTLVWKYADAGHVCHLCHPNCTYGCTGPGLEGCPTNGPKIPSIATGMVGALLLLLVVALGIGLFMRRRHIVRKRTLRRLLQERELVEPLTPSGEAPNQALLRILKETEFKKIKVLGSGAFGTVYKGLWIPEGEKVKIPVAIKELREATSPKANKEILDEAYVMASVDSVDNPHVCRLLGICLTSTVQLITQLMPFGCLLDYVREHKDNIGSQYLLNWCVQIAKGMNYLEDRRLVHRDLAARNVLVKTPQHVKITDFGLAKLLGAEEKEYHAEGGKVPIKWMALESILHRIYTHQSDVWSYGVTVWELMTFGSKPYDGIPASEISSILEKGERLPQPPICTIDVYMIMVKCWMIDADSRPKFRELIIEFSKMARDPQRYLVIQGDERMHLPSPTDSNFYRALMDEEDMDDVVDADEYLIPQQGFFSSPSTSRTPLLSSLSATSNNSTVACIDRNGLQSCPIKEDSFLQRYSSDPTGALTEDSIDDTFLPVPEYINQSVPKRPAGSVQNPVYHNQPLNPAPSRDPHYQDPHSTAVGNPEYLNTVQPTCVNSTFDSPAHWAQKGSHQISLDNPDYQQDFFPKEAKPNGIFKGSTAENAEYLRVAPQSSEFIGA

GI50 [1] | IC50 [2] | GI50 [3] | GI50 [4] | Compound
3.27 µM | 8.73 µM | 0.995 µM | 3.22 µM | Cn1cc(Nc2ncc(Cl)c(Nc3cc(NC(=O)/C=C/CF)ccc3F)n2)cn1 [Compound 7, (E)-N-(3-((5-chloro-2-((1-methyl-1H-pyrazol-4-yl)amino)pyrimidin-4-yl)amino)-4-fluorophenyl)-4-fluorobut-2-enamide]
7.45 µM | 8.59 µM | 7.58 µM | 4.99 µM | C=CC(=O)Nc1ccc(Cl)c(Nc2nc(Nc3cnn(C)c3)ncc2Cl)c1 [Compound 8, N-(4-chloro-3-((5-chloro-2-((1-methyl-1H-pyrazol-4-yl)amino)pyrimidin-4-yl)amino)phenyl)acrylamide]
9.48 µM | 8.03 µM | > 10 µM | 7.49 µM | CN(C)C/C=C/C(=O)Nc1ccc(Cl)c(Nc2nc(Nc3cnn(C)c3)ncc2Cl)c1 [Compound 9, (E)-N-(4-chloro-3-((5-chloro-2-((1-methyl-1H-pyrazol-4-yl)amino)pyrimidin-4-yl)amino)phenyl)-4-(dimethylamino)but-2-enamide]
> 10 µM | > 10 µM | > 10 µM | 4.72 µM | C/C=C/C(=O)Nc1ccc(F)c(Nc2nc(Nc3cnn(C)c3)ncc2Cl)c1 [Compound 11, (E)-N-(3-((5-chloro-2-((1-methyl-1H-pyrazol-4-yl)amino)pyrimidin-4-yl)amino)-4-fluorophenyl)but-2-enamide]
> 10 µM | > 10 µM | > 10 µM | 7.03 µM | C=C(C)C(=O)Nc1ccc(F)c(Nc2nc(Nc3cnn(C)c3)ncc2Cl)c1 [Compound 12, N-(3-((5-chloro-2-((1-methyl-1H-pyrazol-4-yl)amino)pyrimidin-4-yl)amino)-4-fluorophenyl)methacrylamide]
> 10 µM | > 10 µM | > 10 µM | > 10 µM | C=CC(=O)Nc1ccc(OC)c(Nc2nc(Nc3cnn(C)c3)ncc2Cl)c1 [Compound 13, N-(3-((5-chloro-2-((1-methyl-1H-pyrazol-4-yl)amino)pyrimidin-4-yl)amino)-4-methoxyphenyl)acrylamide]
0.373 µM | 4.22 µM | 0.371 µM | 0.543 µM | C=CC(=O)Nc1ccc(F)c(Nc2nc(Nc3cnn(CCO)c3)ncc2Cl)c1 [Compound 15, N-(3-((5-chloro-2-((1-(2-hydroxyethyl)-1H-pyrazol-4-yl)amino)pyrimidin-4-yl)amino)-4-fluorophenyl)acrylamide]
9.06 µM | 9.04 µM | 8.84 µM | 1.7 µM | CN(C)C/C=C/C(=O)Nc1ccc(F)c(Nc2nc(Nc3cnn(CCO)c3)ncc2Cl)c1 [Compound 16, (E)-N-(3-((5-chloro-2-((1-(2-hydroxyethyl)-1H-pyrazol-4-yl)amino)pyrimidin-4-yl)amino)-4-fluorophenyl)-4-(dimethylamino)but-2-enamide]
1.53 µM | 7.74 µM | 1.02 µM | 1.88 µM | CN(C)C/C=C/C(=O)Nc1cccc(Nc2nc(Nc3cnn(C)c3)ncc2CNc2ccccc2)c1 [Compound 17, (E)-4-(dimethylamino)-N-(3-((2-((1-methyl-1H-pyrazol-4-yl)amino)-5-((phenylamino)methyl)pyrimidin-4-yl)amino)phenyl)but-2-enamide]
> 10 µM | > 10 µM | 7.16 µM | > 10 µM | C=CC(=O)Nc1cccc(Nc2nc(Nc3cnn(C)c3)ncc2CN(C(C)=O)c2ccccc2)c1 [Compound 18]
> 10 µM | > 10 µM | > 10 µM | > 10 µM | C=CC(=O)Nc1cccc(Nc2nc(Nc3cnn(C)c3)ncc2CN(C(C)=O)C(C)c2ccccc2)c1 (centres unmarked) [Compound 19, N-(3-((2-((1-methyl-1H-pyrazol-4-yl)amino)-5-((N-(1-phenylethyl)acetamido)methyl)pyrimidin-4-yl)amino)phenyl)acrylamide]
